The values that follow come from patent US11034658B2, “Pyridinyl pyrazoles as modulators of RORγT” (Janssen Pharmaceutica NV, priority 2018, dated 2021).

Marks after values point to notes of the source that are not given here.

For test [1], the target named is human RORγt ligand binding domain (RORγt LBD) (Homo sapiens (Human), UniProt P51449). Kind of test: RORγt ThermoFluor assay. From the text:
ThermoFluor® is a fluorescence based assay that estimates ligand binding affinities by measuring the effect of a ligand on protein thermal stability (Pantoliano, M. W., Petrella, E. C., Kwasnoski, J. D., Lobanov, V. S., Myslik, J., Graf, E., Carver, T., Asel, E., Springer, B. A., Lane, P., and Salemme, F. R. (2001) High-density miniaturized thermal shift assays as a general strategy for drug discovery. J Biomol Screen 6, 429-40, and Matulis, D., Kranz, J. K., Salemme, F. R., and Todd, M. J. (2005) Thermodynamic stability of carbonic anhydrase: measurements of binding affinity and stoichiometry using ThermoFluor. Biochemistry 44, 5258-66). This approach is applicable to a wide variety of systems, and rigorous in theoretical interpretation through quantitation of equilibrium binding constants (KD).
The shift in the melting point described as a ΔTm is proportional to the concentration and affinity of the ligand. The compound potency may be compared as a rank order of either values at a single compound concentration or in terms of KD values, estimated from concentration response curves.
RORγt ThermoFluor® Assay Construct
For the RORγt construct used in the ThermoFluor® assay, numbering for the nucleotide sequences was based on the reference sequence for human RORγt, transcript variant 2, NCBI Accession: NM 001001523.1 (SEQ ID NO:1). Nucleotides 850-1635 (SEQ ID NO:2) coding for the wild type human RORγt ligand binding domain (RORγt LBD) were cloned into the pHIS1 vector, a modified pET E. coli expression vector (Accelagen, San Diego), containing an in-frame N-terminal His-tag and a TurboTEV protease cleavage site (ENLYFQG, SEQ ID NO:3) upstream of the cloned insert sequence. The amino acid sequence for the RORγt construct used in the Thermofluor® assay is shown as SEQ ID NO:4.
ThermoFluor® experiments were carried out using instruments owned by Janssen Research and Development, L.L.C. through its acquisition of 3-Dimensional Pharmaceuticals, Inc. 1,8-ANS (Invitrogen) was used as a fluorescent dye. Protein and compound solutions are dispensed into black 384-well polypropylene PCR microplates (Abgene) and overlayed with silicone oil (1 μL, Fluka, type DC 200) to prevent evaporation.
Bar-coded assay plates are robotically loaded onto a thermostatically controlled PCR-type thermal block and then heated at a typical ramp-rate of 1° C./min for all experiments. Fluorescence was measured by continuous illumination with UV light (Hamamatsu LC6) supplied via fiber optic and filtered through a band-pass filter (380-400 nm; >6 OD cutoff). Fluorescence emission of the entire 384-well plate was detected by measuring light intensity using a CCD camera (Sensys, Roper Scientific) filtered to detect 500±25 nm, resulting in simultaneous and independent readings of all 384 wells. Images were collected at each temperature, and the sum of the pixel intensity in a given area of the assay plate was recorded versus temperature. Reference wells contained RORγt without compounds, and the assay conditions were as follows:
Project compounds were arranged in a pre-dosed mother plate (Greiner Bio-one) wherein compounds are serially diluted in 100% DMSO by 1:2 from a high concentration of 10 mM over 12 columns within a series (column 12 is a reference well containing DMSO, no compound). The compounds were robotically dispensed directly into assay plates (1×=46 nL) using a Hummingbird capillary liquid handling instrument (Digilab). Following compound dispense, protein and dye in buffer was added to achieve the final assay volume of 3 μL, followed by 1 μL of silicone oil.
The binding affinity was estimated as described previously (Matulis, D., Kranz, J. K., Salemme, F. R., and Todd, M. J. (2005) Thermodynamic stability of carbonic anhydrase: measurements of binding affinity and stoichiometry using ThermoFluor®. Biochemistry 44, 5258-66) using the following thermodynamic parameters of protein unfolding:
Reference RORγt Tm: 47.8° C.
On the technique in general: In DSF a fluorescence change marks the thermal transition of the protein.

The target of test [2] is full-length human RORγt (GAL4-DBD-RORγt fusion) in HEK293T cells (Homo sapiens (Human), UniProt P51449). Kind of test: RORγt (full-length human) reporter assay, conditions A or B. The format is cell-based. The note with it: for RORγt (FL) Reporter Assay A or B, % inhibition / inhibition at 3 µM: 3 μM compound concentration (footnote *); for IC50: HEK293T cells, read-out: RORγt (FL) Reporter Assay A or B, IC50; for inhibition at 3 µM / inhibition at 1 µM: HEK-293T, read-out: RORγt (FL) Reporter Assay A or B, % inhibition; for inhibition at 1 µM: 1 μM compound concentration (footnote ***). As to the method:
RORγt (Full-Length Human) Reporter Assay:
(§1) HEK293T cells were plated at 35,000 per well in 96-well plate in medium of DMEM with 10% FBS. […] After overnight (16 to 20 hours) incubation, media were removed and cells were lysed with 50 μL Glo Lysis Buffer (Promega) for 10-15 minutes followed by 10 minute incubation with 50 μL Dual Glo reagent (Promega) at room temperature. Firefly luciferase luminescence was measured using a BMG Pherastar plate reader. To each well, 50 μL Stop and Glo reagent was added and incubated for 10 minutes at room temperature. Renilla luminescence was measured using a BMG Pherastar plate reader. To calculate the effect of compounds on RORγt activity, firefly values were normalized against values of DMSO only and values of reference compound at saturating concentration, then further normalized against Renilla signals. IC50s were generated by plotting final Renilla normalized data against compound concentration and percent inhibition was calculated against DMSO control.
as §1, with “at 8750 cells” for “at 35,000”, “in 384-well” for “in 96-well”, “with 20” for “with 50”, “well, 20” for “well, 50”

full-length human RORγt (GAL4-DBD-RORγt fusion) in HEK293T cells, sequence (P51449 other isoform, or with tags, fused parts or gaps): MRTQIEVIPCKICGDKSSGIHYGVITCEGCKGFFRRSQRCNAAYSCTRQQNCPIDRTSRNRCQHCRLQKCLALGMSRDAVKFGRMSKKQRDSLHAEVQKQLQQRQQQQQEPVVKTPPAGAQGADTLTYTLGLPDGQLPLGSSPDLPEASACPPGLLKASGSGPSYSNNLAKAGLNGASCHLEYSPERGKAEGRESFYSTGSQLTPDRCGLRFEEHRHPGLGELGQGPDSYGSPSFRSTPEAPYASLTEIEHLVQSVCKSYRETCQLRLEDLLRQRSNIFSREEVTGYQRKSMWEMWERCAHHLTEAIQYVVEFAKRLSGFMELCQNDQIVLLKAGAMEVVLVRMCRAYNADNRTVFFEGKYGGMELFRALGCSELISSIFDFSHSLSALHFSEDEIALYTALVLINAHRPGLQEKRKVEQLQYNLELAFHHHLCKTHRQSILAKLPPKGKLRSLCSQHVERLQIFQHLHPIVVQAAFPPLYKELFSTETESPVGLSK
human RORγt ligand binding domain (RORγt LBD), sequence (P51449 other isoform, or with tags, fused parts or gaps): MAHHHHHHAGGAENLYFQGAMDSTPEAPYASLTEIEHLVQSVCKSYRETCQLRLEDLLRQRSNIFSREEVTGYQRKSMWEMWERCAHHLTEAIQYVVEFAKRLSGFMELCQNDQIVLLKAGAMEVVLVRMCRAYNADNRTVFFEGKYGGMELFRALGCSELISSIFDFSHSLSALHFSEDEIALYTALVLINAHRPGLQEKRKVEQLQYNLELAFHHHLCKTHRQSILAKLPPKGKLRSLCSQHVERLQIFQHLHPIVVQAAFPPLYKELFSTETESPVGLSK

For the molecule `CCn1nc(C(=O)NC[C@H]2CC[C@H](S(=O)(=O)NC(=O)NC)CC2)c(Cl)c1-c1cnc(CC(C)(C)C(F)(F)F)cc1OC(F)F` [Example 6, 4-Chloro-5-(4-(difluoromethoxy)-6-(3,3,3-trifluoro-2,2-dimethylpropyl)pyridin-3-yl)-1-ethyl-N-(((1r,4r)-4-(N-(methylcarbamoyl)sulfamoyl)cyclohexyl)methyl)-1H-pyrazole-3-carboxamide], the Kd in test [1] was found to be 1.9 nM. In test [2], the “RORγt (FL) Reporter Assay A or B, % inhibition” value was 87* % and the IC50 was determined as 270 nM.

The molecule `CCn1nc(C(=O)NC[C@H]2CC[C@H](S(=O)(=O)NC(N)=O)CC2)c(Cl)c1-c1cnc(CC(C)(C)C(F)(F)F)cc1OC(F)F` [Example 7, N-(((1r,4r)-4-(N-carbamoylsulfamoyl)cyclohexyl)methyl)-4-chloro-5-(4-(difluoromethoxy)-6-(3,3,3-trifluoro-2,2-dimethylpropyl)pyridin-3-yl)-1-ethyl-1H-pyrazole-3-carboxamide] showed a Kd in test [1] of 2.9 nM. Also, in test [2], the “RORγt (FL) Reporter Assay A or B, % inhibition” value is recorded as 100* % and the IC50 was found to be 240 nM.

For `CCn1nc(C(=O)NC[C@H]2CC[C@H](S(N)(=O)=O)CC2)c(Cl)c1-c1cnc(CC(C)(C)C(F)(F)F)cc1OC(F)F` [Example 11, 4-chloro-5-(4-(difluoromethoxy)-6-(3,3,3-trifluoro-2,2-dimethylpropyl)pyridin-3-yl)-1-ethyl-N-(((1r,4r)-4-sulfamoylcyclohexyl)methyl)-1H-pyrazole-3-carboxamide], binding in test [1] was characterised by a dissociation constant (Kd) of 1.4 nM. Besides, in test [2], the IC50 was found to be 23 nM and the inhibition at 3 µM worked out at 108%.

Consider `CCn1nc(C(=O)NC[C@H]2CC[C@H](S(N)(=O)=O)CC2)c(C)c1-c1cnc(CC(C)(C)C(F)(F)F)cc1OC(F)F` [Example 12, 5-(4-(Difluoromethoxy)-6-(3,3,3-trifluoro-2,2-dimethylpropyl)pyridin-3-yl)-1-ethyl-4-methyl-N-(((1r,4r)-4-sulfamoylcyclohexyl)methyl)-1H-pyrazole-3-carboxamide], for which the Kd in test [1] came out at 4.3 nM. In test [2], the IC50 stood at 29 nM and the inhibition at 3 µM came to 110%.

The molecule `CCn1nc(C(=O)NC[C@H]2CC[C@H](S(C)(=O)=O)CC2)c(Cl)c1-c1cnc(CC(C(F)(F)F)C(F)(F)F)cc1OC(F)F` [Example 21, 4-Chloro-5-(4-(difluoromethoxy)-6-(3,3,3-trifluoro-2-(trifluoromethyl)propyl)pyridin-3-yl)-1-ethyl-N-(((1r,4r)-4-(methylsulfonyl)cyclohexyl)methyl)-1H-pyrazole-3-carboxamide] returned a Kd in test [1] of 1.2 nM. For the same molecule, in test [2], the IC50 stood at 20 nM and the inhibition at 1 µM amounted to 120%.

`CCn1nc(C(=O)NC[C@]2(O)CC[C@@H](S(C)(=O)=O)CC2)c(Cl)c1-c1cnc(CC(C(F)(F)F)C(F)(F)F)cc1OC(F)F` [Example 22, 4-Chloro-5-(4-(difluoromethoxy)-6-(3,3,3-trifluoro-2-(trifluoromethyl)propyl)pyridin-3-yl)-1-ethyl-N-(((1s,4s)-1-hydroxy-4-(methylsulfonyl)cyclohexyl)methyl)-1H-pyrazole-3-carboxamide] returned a Kd in test [1] of 6.4 nM. In test [2], the IC50 is 46 nM and the inhibition at 1 µM came out at 115%.

Regarding `CCn1nc(C(=O)NC[C@H]2CC[C@H](S(C)(=O)=O)CC2)c(C)c1-c1cnc(CC(C(F)(F)F)C(F)(F)F)cc1OC(F)F` [Example 23, 5-(4-(Difluoromethoxy)-6-(3,3,3-trifluoro-2-(trifluoromethyl)propyl)pyridin-3-yl)-1-ethyl-4-methyl-N-(((1r,4r)-4-(methylsulfonyl)cyclohexyl)methyl)-1H-pyrazole-3-carboxamide], in test [1], the Kd worked out at 2.5 nM. In test [2], the IC50 is 15 nM and the inhibition at 3 µM worked out at 100%.

`CCn1nc(C(=O)NC[C@]2(O)CC[C@@H](S(C)(=O)=O)CC2)c(C)c1-c1cnc(CC(C(F)(F)F)C(F)(F)F)cc1OC(F)F` [Example 24, 5-(4-(Difluoromethoxy)-6-(3,3,3-trifluoro-2-(trifluoromethyl)propyl)pyridin-3-yl)-1-ethyl-N-(((1s,4s)-1-hydroxy-4-(methylsulfonyl)cyclohexyl)methyl)-4-methyl-1H-pyrazole-3-carboxamide] yielded a Kd in test [1] of 8.9 nM. In test [2], the IC50 is 63 nM and the inhibition at 3 µM was determined as 113%.

`CCn1nc(C(=O)NC[C@H]2CC[C@H](S(C)(=O)=O)CC2)c(Cl)c1-c1cnc(CC(C)(C)C(F)(F)F)cc1C(C)C` [Example 25]: in test [1], the Kd came to 15 nM. In test [2], the IC50 came to 340 nM and the inhibition at 3 µM was 94%.

With `CCn1nc(C(=O)NC[C@H]2CC[C@H](S(C)(=O)=O)CC2)c(Cl)c1-c1cnc(CC(C)(C)C(F)(F)F)cc1C(F)F` [Example 26, 4-Chloro-5-(4-(difluoromethyl)-6-(3,3,3-trifluoro-2,2-dimethylpropyl)pyridin-3-yl)-1-ethyl-N-(((1r,4r)-4-(methylsulfonyl)cyclohexyl)methyl)-1H-pyrazole-3-carboxamide], binding in test [1] was characterised by a dissociation constant (Kd) of 17 nM. Also, in test [2], the IC50 was determined as 14 nM and the inhibition at 3 µM stood at 88%.

For the molecule `CCn1nc(C(=O)NC[C@]2(O)CC[C@@H](S(C)(=O)=O)CC2)c(Cl)c1-c1cnc(CC(C)(C)C(F)(F)F)cc1C(F)F` [Example 27, 4-Chloro-5-(4-(difluoromethyl)-6-(3,3,3-trifluoro-2,2-dimethylpropyl)pyridin-3-yl)-1-ethyl-N-(((1s,4s)-1-hydroxy-4-(methylsulfonyl)cyclohexyl)methyl)-1H-pyrazole-3-carboxamide], binding in test [1] was put at a Kd of 47 nM. In test [2], the IC50 was found to be 130 nM and the inhibition at 3 µM worked out at 20%.

Broadly, the Kd is the concentration at which binding is half-saturated. Read a high Kd as a looser complex. What is called IC50 is the midpoint of a concentration-inhibition curve. The term inhibition denotes the relative decrease from the control value, in per cent.
